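Grown in 96-well plates, cells were treated for 48 hours with each compound at five concentrations. Insufficient inhibition: endpoint recorded as highest concentration tested. GI50: concentration for 50% inhibition of growth.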 Calls of active or inactive are those of the source. Rule as the data show it: active = GI50 up to about 1.1 µM and inactive = higher.
Columns and labels:
Assay in all cases: growth of human tumour cells (NCI), 48 h
ACHN = tested on: ACHN
MDA-N = tested on: MDA-N
CAKI-1 = tested on: CAKI-1
KM12 = tested on: KM12
MCF7 = tested on: MCF7
LOX IMVI = tested on: LOX IMVI
NCI-H226 = tested on: NCI-H226
M14 = tested on: M14
HCT-15 = tested on: HCT-15
MDA-MB-231 = tested on: MDA-MB-231
MDA-MB-435 = tested on: MDA-MB-435
OVCAR-5 = tested on: OVCAR-5
BT-549 = tested on: BT-549
NCI-H460 = tested on: NCI-H460
Malme-3M = tested on: Malme-3M
MOLT-4 = tested on: MOLT-4
OVCAR-4 = tested on: OVCAR-4
U-251 = tested on: U-251
HCC 2998 = tested on: HCC 2998
UACC-62 = tested on: UACC-62

## COC(=O)c1c(O)ccc2c1c1c(n2Cc2cccc(C)c2)C(=O)c2ccccc2C1=O
ACHN
  GI50: 11.2 µM (inactive)
MDA-N
  GI50: 13.1 µM (inactive)
CAKI-1
  GI50: 11.8 µM (inactive)
KM12
  GI50: 11 µM (inactive)
MCF7
  GI50: 5.37 µM (inactive)
LOX IMVI
  GI50: 11.7 µM (inactive)
NCI-H226
  GI50: 17.4 µM (inactive)
M14
  GI50: 15 µM (inactive)
HCT-15
  GI50: 8.05 µM
MDA-MB-231
  GI50: 16.1 µM (inactive)
MDA-MB-435
  GI50: 9.82 µM (inactive)
OVCAR-5
  GI50: 22.5 µM (inactive)
BT-549
  GI50: 15 µM (inactive)
NCI-H460
  GI50: 4.29 µM (inactive)
Malme-3M
  GI50: 16.7 µM (inactive)
MOLT-4
  GI50: 4.24 µM (inactive)
OVCAR-4
  GI50: 6.46 µM (inactive)
U-251
  GI50: 11.6 µM (inactive)
HCC 2998
  GI50: 2.7 µM (inactive)

## CC(=O)OCCCCn1cc(Cn2ccc(=O)n(Cc3cn(CCCCOC(C)=O)nn3)c2=O)nn1
ACHN
  GI50: > 100 µM (inactive)
MDA-N
  GI50: > 100 µM (inactive)
CAKI-1
  GI50: > 100 µM (inactive)
KM12
  GI50: > 100 µM (inactive)
MCF7
  GI50: > 100 µM (inactive)
LOX IMVI
  GI50: > 100 µM (inactive)
NCI-H226
  GI50: > 100 µM (inactive)
M14
  GI50: > 100 µM (inactive)
HCT-15
  GI50: > 100 µM
MDA-MB-231
  GI50: > 100 µM (inactive)
MDA-MB-435
  GI50: > 100 µM (inactive)
OVCAR-5
  GI50: > 100 µM (inactive)
BT-549
  GI50: > 100 µM (inactive)
Malme-3M
  GI50: > 100 µM (inactive)
MOLT-4
  GI50: > 100 µM (inactive)
OVCAR-4
  GI50: > 100 µM (inactive)
UACC-62
  GI50: > 100 µM (inactive)
U-251
  GI50: > 100 µM (inactive)
HCC 2998
  GI50: > 100 µM (inactive)

## C=CCn1c(N)c(C#N)c(C#N)c1-c1ccccc1
ACHN
  GI50: > 100 µM (inactive)
MDA-N
  GI50: > 100 µM (inactive)
CAKI-1
  GI50: > 100 µM (inactive)
KM12
  GI50: > 100 µM (inactive)
MCF7
  GI50: > 100 µM (inactive)
LOX IMVI
  GI50: > 100 µM (inactive)
NCI-H226
  GI50: > 100 µM (inactive)
M14
  GI50: > 100 µM (inactive)
HCT-15
  GI50: > 100 µM
MDA-MB-231
  GI50: > 100 µM (inactive)
MDA-MB-435
  GI50: > 100 µM (inactive)
OVCAR-5
  GI50: > 100 µM (inactive)
BT-549
  GI50: > 100 µM (inactive)
Malme-3M
  GI50: > 100 µM (inactive)
MOLT-4
  GI50: > 100 µM (inactive)
OVCAR-4
  GI50: > 100 µM (inactive)
UACC-62
  GI50: > 100 µM (inactive)
U-251
  GI50: > 100 µM (inactive)
HCC 2998
  GI50: > 100 µM (inactive)

## COC(=O)C1(Cc2ccc3c(c2)CCC3)Cc2ccccc2C1=O (stereo unspecified)
ACHN
  GI50: 33.3 µM (inactive)
MDA-N
  GI50: 2.72 µM (inactive)
CAKI-1
  GI50: 19.6 µM (inactive)
KM12
  GI50: 1.55 µM (inactive)
MCF7
  GI50: 7.06 µM (inactive)
LOX IMVI
  GI50: 10.5 µM (inactive)
NCI-H226
  GI50: 18.2 µM (inactive)
M14
  GI50: 9.53 µM (inactive)
HCT-15
  GI50: 6.76 µM
MDA-MB-231
  GI50: 27.2 µM (inactive)
MDA-MB-435
  GI50: 2.97 µM (inactive)
OVCAR-5
  GI50: 26.4 µM (inactive)
BT-549
  GI50: 11.5 µM (inactive)
NCI-H460
  GI50: 28.4 µM (inactive)
Malme-3M
  GI50: 17.5 µM (inactive)
MOLT-4
  GI50: 4.45 µM (inactive)
OVCAR-4
  GI50: 26.2 µM (inactive)
UACC-62
  GI50: 8.43 µM (inactive)
U-251
  GI50: 13.4 µM (inactive)
HCC 2998
  GI50: 14.6 µM (inactive)

## Nc1ncnc2c1N=C(c1ccccc1)CC(c1ccccc1)N2 (stereo unspecified)
ACHN
  GI50: > 100 µM (inactive)
MDA-N
  GI50: > 100 µM (inactive)
CAKI-1
  GI50: > 100 µM (inactive)
KM12
  GI50: > 100 µM (inactive)
MCF7
  GI50: > 100 µM (inactive)
LOX IMVI
  GI50: > 100 µM (inactive)
NCI-H226
  GI50: > 100 µM (inactive)
M14
  GI50: > 100 µM (inactive)
HCT-15
  GI50: > 100 µM
MDA-MB-231
  GI50: > 100 µM (inactive)
MDA-MB-435
  GI50: > 100 µM (inactive)
OVCAR-5
  GI50: > 100 µM (inactive)
BT-549
  GI50: > 100 µM (inactive)
Malme-3M
  GI50: > 100 µM (inactive)
MOLT-4
  GI50: > 100 µM (inactive)
OVCAR-4
  GI50: > 100 µM (inactive)
UACC-62
  GI50: > 100 µM (inactive)
U-251
  GI50: > 100 µM (inactive)
HCC 2998
  GI50: > 100 µM (inactive)

## Cc1ccc(C(=O)NCc2ccccc2)cc1/N=N/N(C)C
ACHN
  GI50: > 75.3 µM (inactive)
MDA-N
  GI50: > 100 µM (inactive)
CAKI-1
  GI50: > 100 µM (inactive)
KM12
  GI50: 64.4 µM (inactive)
MCF7
  GI50: > 100 µM (inactive)
LOX IMVI
  GI50: 58.1 µM (inactive)
NCI-H226
  GI50: > 100 µM (inactive)
M14
  GI50: > 100 µM (inactive)
HCT-15
  GI50: > 83 µM
MDA-MB-231
  GI50: > 100 µM (inactive)
MDA-MB-435
  GI50: > 100 µM (inactive)
OVCAR-5
  GI50: > 100 µM (inactive)
BT-549
  GI50: > 100 µM (inactive)
NCI-H460
  GI50: > 100 µM (inactive)
Malme-3M
  GI50: > 100 µM (inactive)
MOLT-4
  GI50: 56.8 µM (inactive)
OVCAR-4
  GI50: > 76.2 µM (inactive)
UACC-62
  GI50: > 100 µM (inactive)
U-251
  GI50: > 100 µM (inactive)
HCC 2998
  GI50: > 100 µM (inactive)

## CN(c1ccc(Cl)cc1)S(=O)(=O)c1cccc([N+](=O)[O-])c1
ACHN
  GI50: 99.1 µM (inactive)
MDA-N
  GI50: 67.9 µM (inactive)
CAKI-1
  GI50: 64.6 µM (inactive)
KM12
  GI50: 52.6 µM (inactive)
MCF7
  GI50: 56.1 µM (inactive)
LOX IMVI
  GI50: 41.9 µM (inactive)
NCI-H226
  GI50: 53.8 µM (inactive)
M14
  GI50: 43.4 µM (inactive)
HCT-15
  GI50: 47.1 µM
MDA-MB-231
  GI50: 44 µM (inactive)
MDA-MB-435
  GI50: 34.8 µM (inactive)
OVCAR-5
  GI50: 87.3 µM (inactive)
BT-549
  GI50: 32.7 µM (inactive)
NCI-H460
  GI50: 42.3 µM (inactive)
Malme-3M
  GI50: 69.2 µM (inactive)
MOLT-4
  GI50: 17.2 µM (inactive)
OVCAR-4
  GI50: > 100 µM (inactive)
UACC-62
  GI50: 39.4 µM (inactive)
U-251
  GI50: 64.4 µM (inactive)
HCC 2998
  GI50: 79.1 µM (inactive)

## CCOC(=O)CC1(O)CCCCC1(Sc1ccc(C)cc1)Sc1ccc(C)cc1 (stereo unspecified)
ACHN
  GI50: 51.5 µM (inactive)
MDA-N
  GI50: 35.5 µM (inactive)
CAKI-1
  GI50: 32.2 µM (inactive)
KM12
  GI50: 44.2 µM (inactive)
MCF7
  GI50: 31.6 µM (inactive)
LOX IMVI
  GI50: 36.8 µM (inactive)
NCI-H226
  GI50: 34.4 µM (inactive)
M14
  GI50: 41.4 µM (inactive)
HCT-15
  GI50: 34.4 µM
MDA-MB-231
  GI50: 77.4 µM (inactive)
MDA-MB-435
  GI50: 33.9 µM (inactive)
OVCAR-5
  GI50: 44.2 µM (inactive)
BT-549
  GI50: 83 µM (inactive)
NCI-H460
  GI50: 56.4 µM (inactive)
Malme-3M
  GI50: 30.5 µM (inactive)
MOLT-4
  GI50: 24.9 µM (inactive)
OVCAR-4
  GI50: 47.8 µM (inactive)
UACC-62
  GI50: 92 µM (inactive)
U-251
  GI50: 33.7 µM (inactive)
HCC 2998
  GI50: 31.5 µM (inactive)

## Cc1c2ncccc2cc2oc3ccccc3c(=O)c12
ACHN
  GI50: 21.9 µM (inactive)
MDA-N
  GI50: 63.4 µM (inactive)
CAKI-1
  GI50: 17.7 µM (inactive)
KM12
  GI50: 55.6 µM (inactive)
MCF7
  GI50: 5.11 µM (inactive)
LOX IMVI
  GI50: 11.1 µM (inactive)
NCI-H226
  GI50: 38.4 µM (inactive)
HCT-15
  GI50: 41.8 µM
MDA-MB-231
  GI50: 92 µM (inactive)
MDA-MB-435
  GI50: 56.8 µM (inactive)
OVCAR-5
  GI50: 16.1 µM (inactive)
BT-549
  GI50: 55.8 µM (inactive)
NCI-H460
  GI50: 5.46 µM (inactive)
Malme-3M
  GI50: 68.4 µM (inactive)
MOLT-4
  GI50: 2.94 µM (inactive)
OVCAR-4
  GI50: 35.8 µM (inactive)
UACC-62
  GI50: 50 µM (inactive)
HCC 2998
  GI50: 60.7 µM (inactive)

## CC(C)(C)C1=NC(=S)SC2=NC(=O)C3(NN21)c1ccccc1-c1ccccc13
ACHN
  GI50: 6.14 µM (inactive)
MDA-N
  GI50: 8.41 µM (inactive)
CAKI-1
  GI50: > 10 µM (inactive)
KM12
  GI50: > 10 µM (inactive)
MCF7
  GI50: 4.43 µM (inactive)
LOX IMVI
  GI50: > 10 µM (inactive)
NCI-H226
  GI50: 6.07 µM (inactive)
M14
  GI50: > 10 µM (inactive)
HCT-15
  GI50: 9.27 µM
MDA-MB-231
  GI50: 9.46 µM (inactive)
MDA-MB-435
  GI50: > 10 µM (inactive)
BT-549
  GI50: 6.35 µM (inactive)
NCI-H460
  GI50: 4.61 µM (inactive)
Malme-3M
  GI50: > 10 µM (inactive)
MOLT-4
  GI50: 3.45 µM (inactive)
OVCAR-4
  GI50: 7.98 µM (inactive)
UACC-62
  GI50: > 10 µM (inactive)
HCC 2998
  GI50: > 10 µM (inactive)

## Cc1cc(S(=O)(=O)NC2=NCCCN2)c(S)cc1Cl
ACHN
  GI50: 33.8 µM (inactive)
MDA-N
  GI50: 43.9 µM (inactive)
CAKI-1
  GI50: 16.8 µM (inactive)
KM12
  GI50: 37.8 µM (inactive)
MCF7
  GI50: > 10 µM (inactive)
LOX IMVI
  GI50: 22.1 µM (inactive)
NCI-H226
  GI50: 22.3 µM (inactive)
M14
  GI50: 29.6 µM (inactive)
HCT-15
  GI50: 43.6 µM
MDA-MB-231
  GI50: 72.9 µM (inactive)
MDA-MB-435
  GI50: 18.3 µM (inactive)
OVCAR-5
  GI50: 33 µM (inactive)
BT-549
  GI50: 0.721 µM (active)
NCI-H460
  GI50: 39.3 µM (inactive)
Malme-3M
  GI50: 26.4 µM (inactive)
OVCAR-4
  GI50: 16.8 µM (inactive)
UACC-62
  GI50: 27.9 µM (inactive)
U-251
  GI50: 34.4 µM (inactive)
HCC 2998
  GI50: 36.1 µM (inactive)
